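Results reflect a 48-hour exposure of cells in 96-well plates to compound at five concentrations. GI50 = concentration required for 50% inhibition of growth.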 Active and inactive are the calls of the source. No stated cut-off is given here; in the data, active = GI50 up to about 1.1 µM and inactive = higher.
Key:
Experiment in all cases: NCI-60 cell line screen, 48 h
SK-MEL-2 = system: SK-MEL-2
HOP-62 = system: HOP-62
HCT-116 = system: HCT-116
HCC 2998 = system: HCC 2998
M14 = system: M14
LOX IMVI = system: LOX IMVI
NCI-H522 = system: NCI-H522
K562 = system: K562
UACC-62 = system: UACC-62
SNB-75 = system: SNB-75
MOLT-4 = system: MOLT-4
SK-MEL-28 = system: SK-MEL-28
SK-MEL-5 = system: SK-MEL-5
SF-268 = system: SF-268
MDA-MB-231 = system: MDA-MB-231
CCRF-CEM = system: CCRF-CEM
SR = system: SR
EKVX = system: EKVX
HL-60 = system: HL-60
SF-295 = system: SF-295

Row | Structure (SMILES) | GI50 (SK-MEL-2) | GI50 (HOP-62) | GI50 (HCT-116) | GI50 (HCC 2998) | GI50 (M14) | GI50 (LOX IMVI) | GI50 (NCI-H522) | GI50 (K562) | GI50 (UACC-62) | GI50 (SNB-75) | GI50 (MOLT-4) | GI50 (SK-MEL-28) | GI50 (SK-MEL-5) | GI50 (SF-268) | GI50 (MDA-MB-231) | GI50 (CCRF-CEM) | GI50 (SR) | GI50 (EKVX) | GI50 (HL-60) | GI50 (SF-295)
1 | O=C(Nc1sccc1S(=O)(=O)c1ccccc1)c1cccnc1 | 6.71 µM (inactive) | 21.9 µM (inactive) | 6.59 µM (inactive) | 21.3 µM (inactive) | 6.08 µM (inactive) | 75.3 µM (inactive) | 7.98 µM (inactive) | 4.39 µM (inactive) | 14 µM (inactive) | 19.1 µM (inactive) | 5.35 µM (inactive) | 38.5 µM (inactive) | 3.61 µM (inactive) | 57.4 µM (inactive) | > 69.5 µM (inactive) | 7.03 µM (inactive) | 5.2 µM (inactive) | 48.9 µM (inactive) | 0.614 µM (active) | 8.63 µM (inactive)
2 | Cc1ccc(C(=O)Nc2ccc(CP(=O)(O)O)cc2)cc1NC(=O)c1cccc(N)c1 | > 100 µM (inactive) | > 100 µM (inactive) | > 100 µM (inactive) | > 100 µM (inactive) | > 100 µM (inactive) | > 100 µM (inactive) | > 100 µM (inactive) | > 100 µM (inactive) | > 100 µM (inactive) | > 100 µM (inactive) | > 100 µM (inactive) | > 100 µM (inactive) | > 100 µM (inactive) | > 100 µM (inactive) | > 100 µM (inactive) | > 100 µM (inactive) | > 100 µM (inactive) | > 100 µM (inactive) | > 100 µM (inactive) | > 100 µM (inactive)
3 | CCOC(=O)C(SCCO)C(C(=O)OCC)n1ccc(N)nc1=O (stereo not given) | > 100 µM (inactive) | > 100 µM (inactive) | > 100 µM (inactive) | > 100 µM (inactive) | > 100 µM (inactive) | > 100 µM (inactive) | > 100 µM (inactive) | > 100 µM (inactive) | > 100 µM (inactive) | > 100 µM (inactive) | > 100 µM (inactive) | > 100 µM (inactive) | > 100 µM (inactive) | > 100 µM (inactive) | > 100 µM (inactive) | > 100 µM (inactive) | > 100 µM (inactive) | > 100 µM (inactive) | > 100 µM (inactive) | > 100 µM (inactive)
4 | C[C@@]12C[C@@H](c3ccccc3O1)N1CCCCSC1=N2 | > 100 µM (inactive) | > 100 µM (inactive) | > 100 µM (inactive) | > 100 µM (inactive) | > 100 µM (inactive) | > 100 µM (inactive) | > 100 µM (inactive) | > 100 µM (inactive) | > 100 µM (inactive) | > 100 µM (inactive) | > 100 µM (inactive) | > 100 µM (inactive) | > 100 µM (inactive) | > 100 µM (inactive) | > 100 µM (inactive) | > 100 µM (inactive) | > 100 µM (inactive) | > 100 µM (inactive) | 3.46 µM (inactive) | > 100 µM (inactive)
5 | COc1ccc(-n2c(N)c(C#N)[nH]c2=O)cc1 | > 10 µM (inactive) | > 10 µM (inactive) | > 10 µM (inactive) | > 10 µM (inactive) | > 10 µM (inactive) | 1.79 µM (inactive) | > 10 µM (inactive) | > 10 µM (inactive) | > 10 µM (inactive) | > 10 µM (inactive) | > 10 µM (inactive) | > 10 µM (inactive) | > 10 µM (inactive) | > 10 µM (inactive) | > 10 µM (inactive) | > 10 µM (inactive) | > 10 µM (inactive) | > 10 µM (inactive) | > 10 µM (inactive) | 2.77 µM (inactive)
6 | COc1ccc2c(C)c(Oc3c(Cl)c(Cl)c(O)c(C#N)c3C#N)oc2c1 | > 100 µM (inactive) | > 100 µM (inactive) | > 100 µM (inactive) | > 100 µM (inactive) | > 100 µM (inactive) | > 100 µM (inactive) | > 100 µM (inactive) | > 100 µM (inactive) | > 100 µM (inactive) | > 100 µM (inactive) | > 100 µM (inactive) | > 100 µM (inactive) | > 100 µM (inactive) | > 100 µM (inactive) | > 100 µM (inactive) | > 100 µM (inactive) | > 100 µM (inactive) | > 100 µM (inactive) | > 100 µM (inactive) | > 100 µM (inactive)
7 | Cc1cn(CC2=NCCN2)c(=O)[nH]c1=O | > 100 µM (inactive) | > 100 µM (inactive) | > 100 µM (inactive) | > 100 µM (inactive) | > 100 µM (inactive) | > 100 µM (inactive) | > 100 µM (inactive) | > 100 µM (inactive) | > 100 µM (inactive) | > 100 µM (inactive) | > 100 µM (inactive) | > 100 µM (inactive) | > 100 µM (inactive) | > 100 µM (inactive) | > 100 µM (inactive) | > 100 µM (inactive) | > 100 µM (inactive) | > 100 µM (inactive) | > 100 µM (inactive) | > 100 µM (inactive)
8 | CCOC(=O)c1c(C)n(-c2ccc(C)cc2)c2c1cc(O)c1[nH]c3c(c12)CCCC3 | 12.4 µM (inactive) | 27.9 µM (inactive) | 21.8 µM (inactive) | 14.6 µM (inactive) | 16.6 µM (inactive) | 14.4 µM (inactive) | 12.7 µM (inactive) | 17.7 µM (inactive) | 17.3 µM (inactive) | 0.0658 µM (active) | 8.77 µM (inactive) | 16.3 µM (inactive) | 11.9 µM (inactive) | 17.5 µM (inactive) | 20 µM (inactive) | 1.38 µM (inactive) | 0.0566 µM (active) | 26.1 µM (inactive) | 7.4 µM (inactive) | 20.6 µM (inactive)
9 | CCCCCCCCCCCC(=O)N(CCCCCCCCCCC(=O)O)CC(O)C(O)C(OC1OC(CO)C(O)C(O)C1O)C(O)CO (stereo not given) | > 100 µM (inactive) | > 100 µM (inactive) | > 100 µM (inactive) | > 100 µM (inactive) | > 100 µM (inactive) | > 100 µM (inactive) | > 100 µM (inactive) | 95.1 µM (inactive) | > 100 µM (inactive) | > 100 µM (inactive) | > 100 µM (inactive) | > 100 µM (inactive) | > 100 µM (inactive) | > 100 µM (inactive) | > 100 µM (inactive) | > 100 µM (inactive) | > 100 µM (inactive) | > 100 µM (inactive) | > 100 µM (inactive) | > 100 µM (inactive)
